The target in one assay is T1, intracellular hCE2 (Homo sapiens, UniProt O00748).
T1 construct: endogenous in cells; host or cells: HepG2
T1 sequence (O00748 27-559): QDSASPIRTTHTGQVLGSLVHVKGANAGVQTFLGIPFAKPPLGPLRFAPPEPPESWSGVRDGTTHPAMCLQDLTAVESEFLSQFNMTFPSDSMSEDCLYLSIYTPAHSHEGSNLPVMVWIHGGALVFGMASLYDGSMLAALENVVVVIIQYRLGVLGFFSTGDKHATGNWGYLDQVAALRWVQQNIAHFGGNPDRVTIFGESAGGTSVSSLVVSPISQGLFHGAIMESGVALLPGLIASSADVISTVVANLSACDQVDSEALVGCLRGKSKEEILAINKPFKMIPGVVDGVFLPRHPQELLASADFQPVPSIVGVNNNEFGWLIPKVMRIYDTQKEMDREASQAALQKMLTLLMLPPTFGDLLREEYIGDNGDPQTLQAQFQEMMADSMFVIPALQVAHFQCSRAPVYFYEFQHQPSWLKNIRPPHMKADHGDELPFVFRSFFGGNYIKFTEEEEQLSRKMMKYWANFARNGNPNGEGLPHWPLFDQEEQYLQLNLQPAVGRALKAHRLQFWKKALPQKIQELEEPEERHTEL
Put plainly: Inhibition of intracellular hCE2 in living HepG2 cells (NCEN hydrolysis, fluorescence imaging). The format is cell-based. As to the method: In view of that hCE2 was an intracellular enzyme, the inhibition potential of 23o was investigated in living HepG2 cells. The HepG2 cells were cultured in Modified Eagle's Medium (MEM) with 5% CO2 and 0.1% antibiotic–antimycoticmix antibiotic at 37 °C, supplemented with 10% fetal bovine serum (FBS) and used NCEN as substrate probe to assay the 23o inhibition potential toward hCE2.
For fluorescence imaging, HepG2 cells were seeded in 96-well plates (8000 cells per well) with complete medium and then incubated for 24 hours. Afterwards, the cells were washed twice with FBS-free culture medium and then preincubated in the medium containing 23o (prepared in FBS-free at various concentrations) for 30 min with 5% CO2 at 37 °C. HepG2 cells were then co-incubated with NCEN (final concentration, 10 μM) for another 50 min to assess the intracellular hCE2 function, respectively. The living cells were imaged and analyzed using an ImageXpress® Micro Confocal High-Content Imaging system (Molecular Devices, Austria).

The target in a further assay is T2, hCE1 (Homo sapiens, UniProt P23141).
T2 construct: tissue Bioreclamation IVT lot no; X008067; host or cells: pooled human liver microsomes, 50 donors
T2 sequence (P23141 18-567): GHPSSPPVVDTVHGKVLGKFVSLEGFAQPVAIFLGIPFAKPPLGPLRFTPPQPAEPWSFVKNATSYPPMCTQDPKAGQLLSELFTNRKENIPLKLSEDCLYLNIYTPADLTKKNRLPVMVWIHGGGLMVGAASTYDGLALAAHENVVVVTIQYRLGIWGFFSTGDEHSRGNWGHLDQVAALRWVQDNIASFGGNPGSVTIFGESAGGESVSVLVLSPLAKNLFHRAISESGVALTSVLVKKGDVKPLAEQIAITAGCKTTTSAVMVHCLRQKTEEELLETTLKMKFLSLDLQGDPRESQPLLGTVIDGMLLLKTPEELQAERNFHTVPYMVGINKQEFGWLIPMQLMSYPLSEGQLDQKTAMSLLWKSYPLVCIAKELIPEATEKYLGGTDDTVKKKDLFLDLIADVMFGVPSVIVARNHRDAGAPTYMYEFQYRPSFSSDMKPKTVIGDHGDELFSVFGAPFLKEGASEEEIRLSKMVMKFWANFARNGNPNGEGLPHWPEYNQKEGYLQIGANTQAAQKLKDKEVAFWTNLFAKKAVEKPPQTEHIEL
Kind of assay: hCE1 inhibition assay (DME hydrolysis in human liver microsomes). It is filed as biochemical. The settings on record: DME probe substrate (3 μM), HLM, PBS pH 6.8, 37 °C. The source says:
We designed and synthesized more than 30 derivatives of DCZ0358. However, the five-ring quaternary ammonium component of some derivatives was unstable to decompose easily into its hydrolyzate 23b. With 12 stable compounds in hand, we conducted experiments to assay inhibitory activities against both hCE1 and hCE2 using a panel of fluorescent probe substrates.[33–36]D-Luciferin methyl ester (DME) was used as a probe substrate, and nevadensin (a specific hCE1 inhibitor) was used as a positive inhibitor control for hCE1. […] DME was used as a probe substrate for evaluating the inhibitory effects of all DCZ0358 derivatives on hCE1, while nevadensin (a specific hCE1 inhibitor) was used as a positive control.[39] Briefly, 100 μL incubation mixture containing 91 μL PBS (pH 6.8), 2 μL inhibitor at different concentrations and 5 μL HLM (1 μg mL^−1, final concentration), were pre-incubated at 37 °C for 10 min. Subsequently, 2 μL DME (3 μM final concentration, close to the Km value of DME in HLM) was added to initiate the reaction. After incubating for 10 min at 37 °C in a shaking bath, the reaction was stopped by the addition of LDR (100 μL). The microplate reader (SpectraMax® iD3, Molecular Devices, Austria) was used for luminescence measurements. The gain value of luminescence detection was set at 140 volts, and the integration time was set at 1 s. The chemical structure of DME and its hydrolytic metabolite (D-luciferin), as well as the detection conditions for D-luciferin are depicted in Table S1. ^† The negative control incubation (DMSO only) was carried out under the same conditions. The residual activity was calculated using the following formula, the residual activity (%) = (the florescence intensity in the presence of inhibitor)/the florescence intensity in negative control × 100%. The residual activities are show in Fig. S1. ^†
For orientation: Liver microsomes are a subcellular fraction often used to study metabolism.

A further assay addresses T3, hCE2 (Homo sapiens, UniProt O00748).
T3 construct: tissue Bioreclamation IVT lot no; X008067; host or cells: pooled human liver microsomes, 50 donors
T3 sequence (O00748 27-559): T1 sequence (O00748 27-559)
Kind of assay: hCE2 inhibition assay (FD hydrolysis in human liver microsomes). The format is biochemical. As to the method:
In brief, 200 μL incubation mixture containing 0.1 M PBS (PH = 7.4), human liver microsomes (2 μg mL^−1, final concentration) and each inhibitor. […] After incubating for 30 min at 37 °C in a shaking bath, the reaction was stopped by the addition of acetonitrile (200 μL). The chemical structure of FD and its hydrolytic metabolite (fluorescein), as well as the detection conditions for fluorescein are depicted in Table S1. ^† The negative control incubation (DMSO only) was also carried out under the same conditions.[42] The residual activity was calculated using the formula mentioned above in hCE1 inhibition assay.

Where “and” joins values, the source holds several entries; their conditions need not be identical. Equal values may be shown once. Bounds are passed on as bounds.

Broadly, the IC50 is the concentration that gives 50% inhibition. By Ki is commonly meant the equilibrium dissociation constant of an inhibitor or competing ligand from its target.

For `COc1cc(COc2cc(-c3cc4ccc(OC)c(OC)c4c4[n+]3C(OC)CO4)ccc2OC)cc(OC)c1` (stereo not shown) [Compound 23o, 5-(3-((3,5-Dimethoxybenzyl)oxy)-4-methoxyphenyl)-3,9,10-trimethoxy-2,3-dihydrooxazolo[2,3-a]isoquinolin-4-ium], the IC50 at intracellular hCE2 (HepG2 cells, NCEN 10 μM substrate, read-out: IC50 against intracellular hCE2 in living HepG2 cells) was 2290 nM; against hCE1, above 100 µM; on hCE2 (FD probe substrate (5 μM), HLM, PBS pH 7.4, 37 °C), 1.19 µM. Moreover, the “Inhibition of intracellular hCE2-mediated NCEN hydrolysis (fluorescence intensity, green channel)” value on intracellular hCE2 (living HepG2 cells, 0-20 μM, NCEN 10 μM, 50 min) is on record as “strongly inhibit”. On hCE2 (Lineweaver-Burk plots, FD substrate, read-out: Ki against hCE2-mediated FD hydrolysis), the Ki is 840 nM and 843 nM. For the same compound, the “Inhibition mode against hCE2-mediated FD hydrolysis” value at hCE2 (inhibition kinetics, FD substrate) is “mixed inhibitor”. For the same compound, on hCE2 (ratio of IC50 values, hCE2 over hCE1 selectivity (fold)), the “Selectivity IC50(hCE1)/IC50(hCE2)” value is listed as above 83.89.

For the origin of these results see PMC9074662, “Discovery of dihydrooxazolo[2,3-a]isoquinoliniums as highly specific inhibitors of hCE2” (RSC Advances, 2019).
